The test system of one assay is H1299 cells. The experiment in a line: Mitochondrial function: ATP, OCR, ECAR, TMRM membrane potential. Type of assay: cell-based, human. The conditions noted are these: 50 μM, 4 h. How it is done: (§1) FIG. 25A-I. Mdivi-1 causes mitochondrial dysfunction and its combination with cisplatin induces mitochondrial swelling that triggers Bax/Bak-independent MOMP. (A) MDA-MB-231 cells and H1299 cells were treated as indicated for 4 h and subjected to ATP determination. […] (B, C) OCR and ECAR were measured after 4 h treatment of H1299 cells with agents alone or the combination (C/M). (D) H1299 cells were treated as indicated for 4 h. Mitochondrial membrane potential was determined with TMRM. (E) Bax/Bak double knockout MEF cells were treated with DMSO or the combination, with or without the presence of 10 μM FCCP for 2 h. Mitochondrial membrane potential was measured as in D. (F) Bax/Bak double knockout MEF cells were treated as indicated for 2 h, ROS generation was determined with DCF-DA. (G) Bax/Bak double knockout MEF cells were pre-incubated with 5 μM MitoSox for 30 min, and then treated as indicated for 2 h followed by flow cytometry. […] Mitochondrial morphology was analyzed by confocal microscopy. […] Mitochondrial ultrastructure was analyzed by electron microscopy. […]
Total cellular ATP content was determined using a luminescent ATP detection kit, ATPlite (PerkinElmer Life Sciences, Boston, Mass.), according to the manufacturer's instruction. The luminescence intensity was measured using a microplate reader, Synergy 2 (BioTek instruments, Winooski, Vt.). […]

In assay [1] the test system is Bax/Bak WT and double knockout (DKO) SV40-transformed MEF cells. Kind of assay: Apoptosis, ROS and mitochondrial morphology in Bax/Bak MEF cells. It is filed as cell-based, mouse. The conditions noted are these: cisplatin alone 20 h in DKO cells; combination within 8 h. How it is done: FIG. 24A-E. The combination of cisplatin and mdivi-1 enhances MOMP bypassing Bax/Bak-dependent mechanism. (A) Bax/Bak wild-type (Bax/Bak+/+) and double knockout (Bax/Bak−/−) SV40-transformed MEF cells were treated with cisplatin at indicated concentrations for 20 h. The cleavage of caspase-9 and -3 were detected by western blot. (B, C) Cleavage of caspase-9 and -3 in Bax/Bak wild-type and double knockout MEF cells after combination treatment. (D) Quantification of apoptotic cells by Annexin V and PI after 8 h treatment of combination at 50 μM. (E) Release of cytochrome c from Bax/Bak wild-type and double knockout MEF cells after combination treatment.
as §1, with “(D) H1299 cells were treated as indicated for 4 h.” left out, “(E) Bax/Bak double knockout MEF cells were treated with DMSO or the combination, with or without the presence of 10 μM FCCP for 2 h.” left out, “DCF-DA.” for “DCF-DA. (G) Bax/Bak double knockout MEF cells were pre-incubated with 5 μM MitoSox for 30 min, and then treated as indicated for 2 h followed by flow cytometry.”

Take `COc1cc(-n2c(=S)[nH]c3ccccc3c2=O)c(Cl)cc1Cl` [mdivi-1]: in the assay on H1299 cells, the “extracellular acidification rate (ECAR)” value is reported as “enhanced the extracellular acidification rate” and the “oxygen consumption rate (OCR) / mitochondrial respiration” value was “suppressed mitochondrial respiration”.
Take `N.N.[Cl][Pt][Cl]` [cisplatin]: the “cleavage of caspase-9 and -3” value in assay [1] was “absence of cleavage of caspase-9 and -3”.

The values are drawn from US9492450B2, “Inhibition of dynamin related protein 1 to promote cell death” (University of Pittsburgh—of the Commonwealth System of …, priority 2011, dated 2016).
